Laboratory results from ChEMBL document CHEMBL5465560, “Selectivity Literature for EUbOPEN Chemogenomic Library” (2024).

Legend:
[1] = target: Cyclin-dependent kinase-like 3 (Homo sapiens) (UniProt Q8IVW4); assay: Selectivity interaction (KinomeScan (DiscoverX)) EUB0000229b CDKL3; details: at 10 µM
[2] = target: Casein kinase I isoform gamma-1 (Homo sapiens) (UniProt Q9HCP0); assay: Selectivity interaction (Kinase panel (KiNativ target engagement assay in Jurkat cells)) EUB0001635a CSNK1G1; format: cell-based; details: at 1 µM
Chain of Casein kinase I isoform gamma-1 (Homo sapiens) (Q9HCP0 whole entry, looked up, canonical isoform): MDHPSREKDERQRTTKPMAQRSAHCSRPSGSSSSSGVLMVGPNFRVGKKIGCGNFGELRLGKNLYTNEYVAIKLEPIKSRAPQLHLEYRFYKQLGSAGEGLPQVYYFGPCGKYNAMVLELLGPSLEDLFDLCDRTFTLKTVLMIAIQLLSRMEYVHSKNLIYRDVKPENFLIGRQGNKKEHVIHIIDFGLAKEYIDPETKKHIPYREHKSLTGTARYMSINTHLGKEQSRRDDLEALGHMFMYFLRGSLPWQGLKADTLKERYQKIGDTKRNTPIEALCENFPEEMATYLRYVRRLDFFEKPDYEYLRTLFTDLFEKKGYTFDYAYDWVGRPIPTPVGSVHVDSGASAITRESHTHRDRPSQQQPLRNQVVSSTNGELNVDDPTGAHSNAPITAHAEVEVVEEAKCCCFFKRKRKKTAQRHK

[3] = target: T1, MAP/microtubule affinity-regulating kinase 4 (Homo sapiens) (UniProt Q96L34); assay: Selectivity interaction (ActivX KiNativ screen (kinase selectivity in THP-1 cell lysates)) EUB0000639a MARK4; format: subcellular; details: lysate, at 0.01 µM
T1 sequence (whole entry): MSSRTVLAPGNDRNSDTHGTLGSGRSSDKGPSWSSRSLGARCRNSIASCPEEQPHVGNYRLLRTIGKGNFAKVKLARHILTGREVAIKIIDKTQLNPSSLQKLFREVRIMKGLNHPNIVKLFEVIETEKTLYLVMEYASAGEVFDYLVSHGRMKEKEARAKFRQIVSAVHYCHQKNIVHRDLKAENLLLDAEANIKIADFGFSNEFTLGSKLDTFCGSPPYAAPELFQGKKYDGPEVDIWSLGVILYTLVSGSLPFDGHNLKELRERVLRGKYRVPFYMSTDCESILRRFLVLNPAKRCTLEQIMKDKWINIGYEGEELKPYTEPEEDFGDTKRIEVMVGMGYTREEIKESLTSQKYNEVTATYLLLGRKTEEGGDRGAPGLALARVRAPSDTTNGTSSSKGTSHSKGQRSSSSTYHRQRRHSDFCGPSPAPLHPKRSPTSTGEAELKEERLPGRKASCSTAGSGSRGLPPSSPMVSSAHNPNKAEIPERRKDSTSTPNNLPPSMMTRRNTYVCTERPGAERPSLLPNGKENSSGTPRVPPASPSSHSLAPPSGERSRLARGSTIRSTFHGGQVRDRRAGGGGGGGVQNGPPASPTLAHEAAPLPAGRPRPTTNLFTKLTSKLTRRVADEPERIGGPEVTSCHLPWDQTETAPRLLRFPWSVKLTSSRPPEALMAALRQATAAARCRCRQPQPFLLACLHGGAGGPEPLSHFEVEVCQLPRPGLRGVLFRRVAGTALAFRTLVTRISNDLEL

[4] = target: T2, Serine/threonine-protein kinase Sgk1 (Homo sapiens) (UniProt O00141); assay: Selectivity interaction (ActivX KiNativ screen (kinase selectivity in THP-1 cell lysates)) EUB0000639a SGK1; format: subcellular; details: lysate
T2 sequence (whole entry): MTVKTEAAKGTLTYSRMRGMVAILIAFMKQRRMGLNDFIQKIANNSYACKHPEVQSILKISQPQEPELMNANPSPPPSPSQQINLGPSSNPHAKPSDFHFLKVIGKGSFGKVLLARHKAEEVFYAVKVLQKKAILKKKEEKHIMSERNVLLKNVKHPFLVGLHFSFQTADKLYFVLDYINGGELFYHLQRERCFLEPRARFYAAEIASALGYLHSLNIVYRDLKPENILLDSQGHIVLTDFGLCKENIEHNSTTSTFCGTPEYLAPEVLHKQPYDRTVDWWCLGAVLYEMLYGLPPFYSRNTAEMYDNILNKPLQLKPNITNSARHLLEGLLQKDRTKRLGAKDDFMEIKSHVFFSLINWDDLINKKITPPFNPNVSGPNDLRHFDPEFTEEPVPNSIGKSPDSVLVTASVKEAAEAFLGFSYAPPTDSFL

[5] = target: T3, Tyrosine-protein kinase JAK3 (Homo sapiens) (UniProt P52333); assay: Selectivity interaction (KinomeScan (DiscoverX)) EUB0000595a JAK3; details: at 10 µM
T3 sequence (whole entry): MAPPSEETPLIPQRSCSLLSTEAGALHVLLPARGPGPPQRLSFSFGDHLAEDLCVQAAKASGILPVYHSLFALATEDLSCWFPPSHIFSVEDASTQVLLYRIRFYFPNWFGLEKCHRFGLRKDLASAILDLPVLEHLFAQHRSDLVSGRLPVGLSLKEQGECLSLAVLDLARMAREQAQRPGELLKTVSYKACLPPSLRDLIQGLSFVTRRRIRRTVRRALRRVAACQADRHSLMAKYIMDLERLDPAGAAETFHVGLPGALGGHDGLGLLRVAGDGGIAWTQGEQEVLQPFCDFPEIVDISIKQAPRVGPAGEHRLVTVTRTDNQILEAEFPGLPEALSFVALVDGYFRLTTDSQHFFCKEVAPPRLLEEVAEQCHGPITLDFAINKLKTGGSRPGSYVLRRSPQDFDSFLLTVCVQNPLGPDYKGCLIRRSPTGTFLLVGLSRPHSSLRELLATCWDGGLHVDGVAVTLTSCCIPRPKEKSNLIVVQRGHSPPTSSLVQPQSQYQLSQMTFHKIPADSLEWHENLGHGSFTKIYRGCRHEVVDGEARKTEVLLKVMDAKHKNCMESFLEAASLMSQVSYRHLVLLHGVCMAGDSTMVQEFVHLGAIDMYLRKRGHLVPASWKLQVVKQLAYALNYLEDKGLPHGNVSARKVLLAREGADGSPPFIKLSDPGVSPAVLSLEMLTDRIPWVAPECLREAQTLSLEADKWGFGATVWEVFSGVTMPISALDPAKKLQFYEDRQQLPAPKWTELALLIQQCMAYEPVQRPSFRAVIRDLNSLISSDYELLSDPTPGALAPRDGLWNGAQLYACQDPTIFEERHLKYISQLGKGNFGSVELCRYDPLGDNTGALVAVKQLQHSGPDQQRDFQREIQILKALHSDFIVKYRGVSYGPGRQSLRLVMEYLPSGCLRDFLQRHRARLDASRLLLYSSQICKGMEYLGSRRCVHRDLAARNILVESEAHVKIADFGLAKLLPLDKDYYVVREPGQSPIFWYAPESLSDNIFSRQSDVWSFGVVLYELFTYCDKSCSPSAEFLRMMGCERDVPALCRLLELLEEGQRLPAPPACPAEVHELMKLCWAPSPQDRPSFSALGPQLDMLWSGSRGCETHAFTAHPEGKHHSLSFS

Chain of Cyclin-dependent kinase-like 3 (Homo sapiens) (Q8IVW4 whole entry, looked up, canonical isoform): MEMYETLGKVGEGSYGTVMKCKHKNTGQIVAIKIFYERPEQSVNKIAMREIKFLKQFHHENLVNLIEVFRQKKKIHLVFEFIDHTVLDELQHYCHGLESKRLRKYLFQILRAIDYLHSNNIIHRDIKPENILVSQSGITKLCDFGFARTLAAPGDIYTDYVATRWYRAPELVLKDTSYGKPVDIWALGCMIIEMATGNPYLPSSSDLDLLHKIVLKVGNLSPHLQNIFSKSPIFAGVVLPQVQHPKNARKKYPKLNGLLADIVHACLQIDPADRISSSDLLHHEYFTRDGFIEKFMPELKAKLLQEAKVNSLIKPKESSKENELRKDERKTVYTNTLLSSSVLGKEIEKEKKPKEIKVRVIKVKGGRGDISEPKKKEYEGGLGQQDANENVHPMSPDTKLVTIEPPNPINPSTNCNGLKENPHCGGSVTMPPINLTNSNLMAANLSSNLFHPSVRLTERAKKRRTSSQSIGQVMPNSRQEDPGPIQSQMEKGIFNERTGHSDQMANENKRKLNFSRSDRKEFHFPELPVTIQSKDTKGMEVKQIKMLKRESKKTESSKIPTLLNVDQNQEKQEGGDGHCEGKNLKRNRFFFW

COc1cc(N(C)c2ccnc3ccc(C(F)(F)F)cc23)cc(OC)c1OC
% binding [1]: 88%

C=CC(=O)Nc1ccc(C(=O)Nc2[nH]nc3c2CN(C(=O)N[C@H](CN(C)C)c2ccccc2)C3(C)C)cc1
% of engagement [2]: -7.7%

CC[C@@H]1[C@H](F)C(=O)N[C@@H]1COc1nccc2cc(C(N)=O)c(OC)cc12 [ZIMLOVISERTIB]
% of inhibition [3]: 9.6%
% of inhibition ([4]; at 0.01 µM): -1%
% of inhibition ([4]; at 0.04 µM): 3.1%
% of inhibition ([4]; at 0.2 µM): -5.7%
% of inhibition ([4]; at 1 µM): -1%
% of inhibition ([4]; at 5 µM): -1.4%

COCC(=O)NC/C=C/c1ccc2ncnc(Nc3ccc(Oc4ccc(C)nc4)c(C)c3)c2c1 [CP-724714]
% of control [5]: 100%
